One test deals with D(2) dopamine receptor (Rattus norvegicus, UniProt P61169). The test is described as follows: Inhibitory concentration against Dopamine receptor D2 (Inactive at >1000 nM concentration).
For test [1], the target named is T1, 5-hydroxytryptamine receptor 1A (Rattus norvegicus, UniProt P19327).
T1 sequence (P19327 whole entry): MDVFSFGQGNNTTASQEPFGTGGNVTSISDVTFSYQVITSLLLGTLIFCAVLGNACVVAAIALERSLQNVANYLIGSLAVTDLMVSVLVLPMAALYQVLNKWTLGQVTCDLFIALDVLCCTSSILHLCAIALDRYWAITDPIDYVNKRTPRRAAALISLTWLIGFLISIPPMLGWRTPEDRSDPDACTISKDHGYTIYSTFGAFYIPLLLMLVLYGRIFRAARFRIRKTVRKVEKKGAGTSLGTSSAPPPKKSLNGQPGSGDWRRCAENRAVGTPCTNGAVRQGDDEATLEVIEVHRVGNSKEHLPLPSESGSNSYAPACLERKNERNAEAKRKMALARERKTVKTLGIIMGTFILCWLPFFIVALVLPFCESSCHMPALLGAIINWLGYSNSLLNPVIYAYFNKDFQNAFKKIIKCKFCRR
In words: Inhibitory concentration against 5-hydroxytryptamine 1A receptor (Inactive at >1000 nM concentration).

In test [2] the target is T2, Adrenergic receptor alpha-1 (Rattus norvegicus, UniProt P15823+P23944+P43140).
T2 sequence (P15823 whole entry): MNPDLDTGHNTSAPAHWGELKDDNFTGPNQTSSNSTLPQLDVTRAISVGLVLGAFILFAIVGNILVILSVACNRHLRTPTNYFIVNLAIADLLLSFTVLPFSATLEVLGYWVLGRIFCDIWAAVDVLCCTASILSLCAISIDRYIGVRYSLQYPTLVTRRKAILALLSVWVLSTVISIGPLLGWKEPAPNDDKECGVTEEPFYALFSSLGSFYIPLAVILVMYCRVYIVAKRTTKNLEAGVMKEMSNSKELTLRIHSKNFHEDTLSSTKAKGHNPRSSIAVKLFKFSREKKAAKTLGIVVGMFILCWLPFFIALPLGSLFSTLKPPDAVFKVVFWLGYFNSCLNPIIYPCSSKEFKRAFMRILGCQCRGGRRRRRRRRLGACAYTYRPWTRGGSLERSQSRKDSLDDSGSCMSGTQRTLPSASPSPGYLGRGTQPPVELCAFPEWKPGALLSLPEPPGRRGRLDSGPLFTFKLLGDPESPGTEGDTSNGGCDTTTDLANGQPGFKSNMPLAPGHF
T2 sequence (P23944 whole entry): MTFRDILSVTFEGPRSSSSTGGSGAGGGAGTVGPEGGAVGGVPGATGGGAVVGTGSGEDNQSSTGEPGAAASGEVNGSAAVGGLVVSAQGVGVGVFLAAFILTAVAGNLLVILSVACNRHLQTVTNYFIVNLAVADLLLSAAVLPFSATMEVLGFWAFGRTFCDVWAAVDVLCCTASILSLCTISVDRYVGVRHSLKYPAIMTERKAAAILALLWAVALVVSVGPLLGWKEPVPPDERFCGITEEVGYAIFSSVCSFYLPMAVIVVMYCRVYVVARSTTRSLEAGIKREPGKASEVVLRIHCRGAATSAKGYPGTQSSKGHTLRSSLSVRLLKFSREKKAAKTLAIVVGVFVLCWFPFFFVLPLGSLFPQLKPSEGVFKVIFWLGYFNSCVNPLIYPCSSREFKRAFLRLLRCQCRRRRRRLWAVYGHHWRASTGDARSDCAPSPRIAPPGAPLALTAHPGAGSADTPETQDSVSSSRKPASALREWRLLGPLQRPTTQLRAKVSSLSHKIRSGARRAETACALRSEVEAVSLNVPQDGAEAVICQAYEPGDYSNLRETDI
T2 sequence (P43140 whole entry): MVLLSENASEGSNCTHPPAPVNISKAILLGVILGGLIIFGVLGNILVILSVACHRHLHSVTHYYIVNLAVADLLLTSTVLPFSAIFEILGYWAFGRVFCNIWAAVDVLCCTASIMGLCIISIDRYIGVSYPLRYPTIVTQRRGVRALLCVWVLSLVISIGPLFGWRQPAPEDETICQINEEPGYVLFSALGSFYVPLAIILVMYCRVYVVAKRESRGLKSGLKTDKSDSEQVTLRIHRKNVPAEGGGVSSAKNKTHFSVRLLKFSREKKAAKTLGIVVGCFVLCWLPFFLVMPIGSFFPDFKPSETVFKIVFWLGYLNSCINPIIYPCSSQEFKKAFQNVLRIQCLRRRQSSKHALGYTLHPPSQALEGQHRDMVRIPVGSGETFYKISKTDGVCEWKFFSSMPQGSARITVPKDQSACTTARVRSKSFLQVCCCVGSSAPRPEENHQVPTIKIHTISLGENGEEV
The test is described as follows: Inhibition of Alpha-1 adrenergic receptor in rat cortex membrane. Format: cell membranes.

For test [3], the target named is 5-hydroxytryptamine receptor 2A (Rattus norvegicus, UniProt P14842). In words: Inhibitory concentration against 5-hydroxytryptamine 2A receptor (Inactive at >1000 nM concentration).
Test [4] deals with T3, Adrenergic receptor alpha-2 (Rattus norvegicus, UniProt P22086+P19328+P22909).
T3 sequence (P22086 whole entry): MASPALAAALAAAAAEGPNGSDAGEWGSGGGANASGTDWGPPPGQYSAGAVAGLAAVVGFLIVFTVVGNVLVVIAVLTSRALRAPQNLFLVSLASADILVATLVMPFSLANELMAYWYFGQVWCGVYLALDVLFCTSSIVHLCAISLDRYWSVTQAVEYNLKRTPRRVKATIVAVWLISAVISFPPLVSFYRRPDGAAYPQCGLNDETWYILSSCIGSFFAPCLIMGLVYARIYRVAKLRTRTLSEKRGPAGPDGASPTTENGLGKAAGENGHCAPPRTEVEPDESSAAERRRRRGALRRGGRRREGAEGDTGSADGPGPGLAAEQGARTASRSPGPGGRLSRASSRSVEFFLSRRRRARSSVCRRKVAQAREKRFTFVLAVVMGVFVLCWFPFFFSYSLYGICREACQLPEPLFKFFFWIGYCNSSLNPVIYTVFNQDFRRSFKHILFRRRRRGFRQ
T3 sequence (P19328 whole entry): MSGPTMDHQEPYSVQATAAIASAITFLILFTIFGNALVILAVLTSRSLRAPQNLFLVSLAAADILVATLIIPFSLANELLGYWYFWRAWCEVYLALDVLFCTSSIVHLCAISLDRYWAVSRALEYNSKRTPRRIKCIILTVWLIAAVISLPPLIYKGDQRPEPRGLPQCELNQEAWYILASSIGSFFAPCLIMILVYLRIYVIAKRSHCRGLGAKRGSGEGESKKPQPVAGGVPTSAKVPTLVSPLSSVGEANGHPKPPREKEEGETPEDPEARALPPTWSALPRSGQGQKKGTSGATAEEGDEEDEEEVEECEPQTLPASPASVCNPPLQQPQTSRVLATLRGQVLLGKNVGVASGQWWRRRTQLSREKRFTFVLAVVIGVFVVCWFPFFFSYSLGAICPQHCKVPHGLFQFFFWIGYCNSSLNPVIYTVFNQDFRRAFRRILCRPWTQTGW
T3 sequence (P22909 whole entry): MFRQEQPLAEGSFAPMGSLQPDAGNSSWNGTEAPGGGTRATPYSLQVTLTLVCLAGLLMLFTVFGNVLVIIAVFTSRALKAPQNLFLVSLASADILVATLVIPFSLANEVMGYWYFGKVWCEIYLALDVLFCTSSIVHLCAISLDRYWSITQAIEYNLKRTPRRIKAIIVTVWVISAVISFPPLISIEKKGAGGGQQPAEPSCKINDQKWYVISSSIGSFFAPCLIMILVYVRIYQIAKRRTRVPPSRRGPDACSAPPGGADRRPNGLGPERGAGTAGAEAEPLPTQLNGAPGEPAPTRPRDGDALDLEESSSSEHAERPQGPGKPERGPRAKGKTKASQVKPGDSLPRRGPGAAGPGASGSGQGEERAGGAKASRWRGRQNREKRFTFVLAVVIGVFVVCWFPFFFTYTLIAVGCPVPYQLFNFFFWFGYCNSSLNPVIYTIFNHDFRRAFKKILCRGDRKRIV
The test is described as follows: Inhibitory concentration against Alpha-2 adrenergic receptor. Format: protein assay.

In test [5] the target is Alpha-1B adrenergic receptor (non-human animal clone). In words: The binding affinity towards Alpha-1B adrenergic receptor in the COS cell line.
Test [6] has as its target T4, Alpha-1A adrenergic receptor (Rattus norvegicus, UniProt P43140).
T4 sequence (P43140 whole entry): T2 sequence (P43140 whole entry)
The test is described as follows: The binding affinity towards Alpha-1A adrenergic receptor in the COS cell line. The format is cell-based.

For test [7], the target named is Alpha-1D adrenergic receptor (Rattus norvegicus). In words: The binding affinity towards Alpha-1D adrenergic receptor in the COS cell line.
The subject of test [8] is Canis familiaris. In words: In vivo effect on urethral contractility (UP) of dog after intravenous administration. Format: functional, Canis lupus familiaris, Urethra.
The subject of test [9] is Canis familiaris. In words: In vivo hypotensive effect(DBP) in dog after intravenous administration. Format: functional, Canis lupus familiaris.
Test [10] has as its target T1, 5-hydroxytryptamine receptor 1A. In words: Inhibition concentration against 5-hydroxytryptamine 1A receptor.
For test [11], the system named is Canis familiaris. The test is described as follows: Ratio of the in vivo effects(DBP/UP) in the dog model after intravenous administration. The format is functional, Canis lupus familiaris.

pIC50, pKi: −log10 of the molar value. Some results are limits rather than exact numbers.

One may read the pIC50 as the negative decadic logarithm of the IC50, by convention in mol/L. Read a high pIC50 as a small IC50. The term IC50 denotes the midpoint of a concentration-inhibition curve. Read a low IC50 as greater potency in that assay. The term pKi denotes the negative decadic logarithm of the Ki, by convention in mol/L. Broadly, the ED50 is the dose at which the effect has come halfway, by size or by number of responders. Read a low ED50 as an effect at a small dose.

D(2) dopamine receptor, sequence (P61169 whole entry): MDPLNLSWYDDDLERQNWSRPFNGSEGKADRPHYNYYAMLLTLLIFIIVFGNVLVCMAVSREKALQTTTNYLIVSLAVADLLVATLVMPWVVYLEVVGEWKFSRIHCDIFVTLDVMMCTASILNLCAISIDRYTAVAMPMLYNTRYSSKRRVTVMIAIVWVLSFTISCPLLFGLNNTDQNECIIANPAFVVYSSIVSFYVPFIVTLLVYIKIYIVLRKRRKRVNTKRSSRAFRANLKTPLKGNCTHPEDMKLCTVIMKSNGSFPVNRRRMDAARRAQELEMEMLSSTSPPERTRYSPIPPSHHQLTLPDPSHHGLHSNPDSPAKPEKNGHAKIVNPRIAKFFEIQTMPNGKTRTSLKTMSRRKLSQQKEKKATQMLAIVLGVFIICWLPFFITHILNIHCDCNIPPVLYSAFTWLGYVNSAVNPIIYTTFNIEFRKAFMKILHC
5-hydroxytryptamine receptor 2A, sequence (P14842 whole entry): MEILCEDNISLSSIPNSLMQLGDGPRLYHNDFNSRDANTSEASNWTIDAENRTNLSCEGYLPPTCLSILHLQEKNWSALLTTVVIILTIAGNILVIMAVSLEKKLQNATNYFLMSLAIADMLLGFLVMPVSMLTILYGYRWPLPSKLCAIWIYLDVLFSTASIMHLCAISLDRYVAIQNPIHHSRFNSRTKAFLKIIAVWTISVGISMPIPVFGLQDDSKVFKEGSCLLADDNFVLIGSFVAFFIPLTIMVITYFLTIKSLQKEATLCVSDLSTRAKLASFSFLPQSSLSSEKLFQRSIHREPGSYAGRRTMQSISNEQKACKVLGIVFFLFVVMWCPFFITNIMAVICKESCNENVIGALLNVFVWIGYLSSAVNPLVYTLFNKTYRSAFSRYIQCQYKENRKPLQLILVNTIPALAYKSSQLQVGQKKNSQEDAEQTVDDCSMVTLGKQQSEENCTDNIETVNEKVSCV

In the case of `COc1cc2nc(N3CCNCC3)nc(N)c2cc1OC`, the pIC50 (against D(2) dopamine receptor; in [1]; in test [3]) was less than 6.00 each time. Besides, the IC50 was 340 nM in test [2] and greater than 1000 nM in [4].

Regarding `COc1cc2nc(N3CCN(C(=O)C(C)Oc4c(OC)cccc4C(C)C)CC3)nc(N)c2cc1OC` (stereo not drawn), the values for the negative logarithm of the Ki (pKi) in test [5], in test [6] and in test [7] were 7.83, 6.81 and 6.95, respectively. Besides, the negative-log IC50 (pIC50) (at D(2) dopamine receptor; in test [1]; in test [3]) was less than 6.00 throughout. Besides, the IC50 in test [2] is given as 123 nM; in [4], greater than 1000 nM.

As for `COc1cc2nc(N3CCc4ccccc4C3)nc(N)c2cc1OC`, the pIC50 (against D(2) dopamine receptor; in test [1]; in test [3]) was less than 6.00 in each case. For the same compound, the IC50 in [2] is 4.1 nM; in [4] it was greater than 1000 nM.

As for `COc1cc2nc(N3CCN(C(=O)CC(c4ccccc4)c4ccccc4)CC3)nc(N)c2cc1OC`, the pIC50 (against D(2) dopamine receptor; in test [1]; in test [3]) was less than 6.00 in each case. For the same compound, it took a dose of 0.031 mg/kg to reach the 50% effect level in the test with Canis familiaris [8] (ED50). In addition, the IC50 in test [2] is reported as 1.4 nM; in [4], greater than 1000 nM. In the test on Canis familiaris [9], this compound showed an ED25 of 0.023 mg/kg. Further, the pKi in test [6] is 8.83.

As to `COc1cc2nc(N3CCN(C(=O)COc4c(OC)cccc4OC)CC3)nc(N)c2cc1OC`, the pIC50 (against D(2) dopamine receptor; in test [1]; in test [3]) was less than 6.00 in each case. For the same compound, the IC50 is 6 nM in test [2] and greater than 1000 nM in [4]. The compound further showed a pKi in [6] of 7.44.

For `COc1cc2nc(N3CCN(C(=O)COc4ccccc4OC)CC3)nc(N)c2cc1OC`, the pIC50 is less than 6.00 at D(2) dopamine receptor, 6.77 in [10] and less than 6.00 in test [3]. In [4], this compound had an IC50 greater than 1000 nM.

On to `COc1cc2nc(N3CCN(C(=O)CCC(=O)c4ccccc4)CC3)nc(N)c2cc1OC`, for which the pIC50 (on D(2) dopamine receptor; in test [1]; in test [3]) was less than 6.00 each time. Further, the 50% effect level with Canis familiaris [8] (ED50) was put at a dose of 0.035 mg/kg. The IC50 in test [2] is recorded as 15 nM; in test [4], greater than 1000 nM. The compound further yielded an ED25 with Canis familiaris [9] of 0.132 mg/kg. Moreover, the pKi in test [6] was 8.25.

`COc1cc2nc(N3CCN(C(=O)COc4c(OC)cccc4C(C)C)CC3)nc(N)c2cc1OC`: the pIC50 (against D(2) dopamine receptor; in test [1]; in test [3]) was less than 6.00 in each case. In the test on Canis familiaris [8], this compound registered an ED50 of 0.065 mg/kg. The IC50 is reported as 4 nM in test [2] and greater than 1000 nM in [4]. Besides, the ED25 with Canis familiaris [9] amounted to 0.183 mg/kg. This compound also showed a pKi in [6] of 8.12.

Take `COc1cc2nc(N3CCN(C(=O)CC(=O)c4ccccc4)CC3)nc(N)c2cc1OC`: the pKi in [5] was 8.27; in test [6], 7.96; in test [7], 8.09. Moreover, the pIC50 (against D(2) dopamine receptor; in test [1]; in test [3]) was less than 6.00 each time. In the test on Canis familiaris [8], this compound returned an ED50 of 0.0106 mg/kg. Besides, the values for the IC50 in test [2] and in [4] were 7.2 nM and greater than 1000 nM, respectively. For the same compound, in the test with Canis familiaris [9], the ED25 is 0.0081 mg/kg. Further, the DBP/UP ratio in the test with Canis familiaris [11] is 0.7.

Values taken from ChEMBL document CHEMBL1132568, “Synthesis, pharmacological evaluation, and structure-activity relationship and quantitative structure-activity relationship studies on novel derivatives of 2,4-diamino-6,7-dimethoxyquinazoline alpha1-adrenoceptor antagonists” (J Med Chem, 1999).
